Details in all cases: Compound concentration 10.0 uM
The target of test [1] is Casein kinase II subunit alpha (Homo sapiens) (UniProt P68400).
The target of test [2] is Casein kinase I isoform gamma-2 (Homo sapiens) (UniProt P78368).
Test [3] deals with T1, Tyrosine-protein kinase ZAP-70 (Homo sapiens) (UniProt P43403).
T1 sequence (whole entry): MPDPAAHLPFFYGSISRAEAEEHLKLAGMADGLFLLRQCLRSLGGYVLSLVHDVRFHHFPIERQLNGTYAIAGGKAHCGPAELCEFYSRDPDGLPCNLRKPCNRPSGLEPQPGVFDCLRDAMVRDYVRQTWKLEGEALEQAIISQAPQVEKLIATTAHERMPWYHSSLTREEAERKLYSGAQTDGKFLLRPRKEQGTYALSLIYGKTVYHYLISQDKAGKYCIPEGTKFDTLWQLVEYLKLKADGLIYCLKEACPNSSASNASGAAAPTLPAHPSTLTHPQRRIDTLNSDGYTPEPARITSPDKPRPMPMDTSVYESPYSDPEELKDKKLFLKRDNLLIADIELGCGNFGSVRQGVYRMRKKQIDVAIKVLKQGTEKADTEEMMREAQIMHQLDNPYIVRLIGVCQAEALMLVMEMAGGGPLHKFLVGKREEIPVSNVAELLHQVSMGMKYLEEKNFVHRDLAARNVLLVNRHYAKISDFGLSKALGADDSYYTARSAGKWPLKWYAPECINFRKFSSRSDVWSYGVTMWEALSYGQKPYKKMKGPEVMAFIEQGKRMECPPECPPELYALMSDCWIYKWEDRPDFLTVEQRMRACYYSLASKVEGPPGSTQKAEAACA

For test [4], the target named is cAMP-dependent protein kinase catalytic subunit alpha (Homo sapiens) (UniProt P17612).
For test [5], the target named is T2, Tyrosine-protein kinase JAK3 (Homo sapiens) (UniProt P52333).
T2 sequence (whole entry): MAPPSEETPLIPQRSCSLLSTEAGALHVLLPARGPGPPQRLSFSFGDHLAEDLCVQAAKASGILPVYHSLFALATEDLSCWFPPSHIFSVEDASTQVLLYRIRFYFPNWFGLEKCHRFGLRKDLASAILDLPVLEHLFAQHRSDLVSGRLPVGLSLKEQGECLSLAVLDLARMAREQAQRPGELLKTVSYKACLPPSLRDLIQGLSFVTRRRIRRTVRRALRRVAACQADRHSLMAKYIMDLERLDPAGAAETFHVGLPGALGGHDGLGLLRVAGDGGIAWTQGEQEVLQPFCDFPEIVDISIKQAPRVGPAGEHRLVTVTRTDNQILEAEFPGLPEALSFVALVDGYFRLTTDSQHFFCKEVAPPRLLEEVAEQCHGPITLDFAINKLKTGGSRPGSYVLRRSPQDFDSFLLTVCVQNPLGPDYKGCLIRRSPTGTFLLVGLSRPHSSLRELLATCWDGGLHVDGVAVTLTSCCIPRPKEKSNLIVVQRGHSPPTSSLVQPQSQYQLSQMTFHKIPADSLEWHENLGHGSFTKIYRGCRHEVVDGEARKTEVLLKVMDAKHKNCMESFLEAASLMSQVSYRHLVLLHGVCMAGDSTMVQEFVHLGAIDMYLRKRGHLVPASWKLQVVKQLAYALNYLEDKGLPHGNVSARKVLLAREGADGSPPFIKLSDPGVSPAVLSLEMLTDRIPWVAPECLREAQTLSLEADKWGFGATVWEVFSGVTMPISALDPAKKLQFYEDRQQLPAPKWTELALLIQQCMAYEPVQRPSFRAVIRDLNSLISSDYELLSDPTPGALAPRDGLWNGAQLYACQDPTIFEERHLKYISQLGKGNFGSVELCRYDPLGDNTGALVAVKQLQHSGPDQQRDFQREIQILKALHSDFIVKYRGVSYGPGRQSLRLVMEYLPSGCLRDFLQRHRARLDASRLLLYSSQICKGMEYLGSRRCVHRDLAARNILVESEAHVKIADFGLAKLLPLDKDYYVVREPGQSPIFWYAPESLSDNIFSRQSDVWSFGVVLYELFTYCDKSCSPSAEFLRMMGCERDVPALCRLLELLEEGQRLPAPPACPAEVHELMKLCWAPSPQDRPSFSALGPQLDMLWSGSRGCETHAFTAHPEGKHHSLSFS

The target in test [6] is Serine/threonine-protein kinase PAK 4 (Homo sapiens) (UniProt O96013).
Serine/threonine-protein kinase PAK 4 (Homo sapiens), sequence (O96013 whole entry, looked up): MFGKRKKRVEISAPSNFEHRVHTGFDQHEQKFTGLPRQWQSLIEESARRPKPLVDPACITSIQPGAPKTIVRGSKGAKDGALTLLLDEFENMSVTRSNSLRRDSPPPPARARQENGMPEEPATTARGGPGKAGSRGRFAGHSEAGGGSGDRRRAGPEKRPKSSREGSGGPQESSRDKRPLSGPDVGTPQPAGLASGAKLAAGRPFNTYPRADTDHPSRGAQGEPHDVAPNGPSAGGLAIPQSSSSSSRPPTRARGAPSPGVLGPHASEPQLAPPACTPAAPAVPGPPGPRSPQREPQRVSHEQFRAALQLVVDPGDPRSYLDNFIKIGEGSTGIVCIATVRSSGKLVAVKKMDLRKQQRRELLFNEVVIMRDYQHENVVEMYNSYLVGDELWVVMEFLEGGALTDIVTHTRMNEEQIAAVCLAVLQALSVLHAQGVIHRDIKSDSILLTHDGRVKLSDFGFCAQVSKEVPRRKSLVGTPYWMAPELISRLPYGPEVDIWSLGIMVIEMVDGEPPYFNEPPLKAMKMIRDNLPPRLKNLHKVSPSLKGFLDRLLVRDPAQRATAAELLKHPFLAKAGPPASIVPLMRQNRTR

Casein kinase II subunit alpha (Homo sapiens), sequence (P68400 whole entry, looked up, canonical isoform): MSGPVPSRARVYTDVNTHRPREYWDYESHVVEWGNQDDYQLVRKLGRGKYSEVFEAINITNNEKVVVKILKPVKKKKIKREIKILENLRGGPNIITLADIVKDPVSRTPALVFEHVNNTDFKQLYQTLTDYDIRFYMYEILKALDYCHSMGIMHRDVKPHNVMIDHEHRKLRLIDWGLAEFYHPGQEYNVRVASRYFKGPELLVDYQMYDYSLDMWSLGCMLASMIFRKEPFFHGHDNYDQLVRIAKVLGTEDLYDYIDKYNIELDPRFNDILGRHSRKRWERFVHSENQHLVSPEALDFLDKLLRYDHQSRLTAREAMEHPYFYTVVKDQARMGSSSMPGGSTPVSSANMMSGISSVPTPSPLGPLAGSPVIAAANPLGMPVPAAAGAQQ
Casein kinase I isoform gamma-2 (Homo sapiens), sequence (P78368 whole entry, looked up, canonical isoform): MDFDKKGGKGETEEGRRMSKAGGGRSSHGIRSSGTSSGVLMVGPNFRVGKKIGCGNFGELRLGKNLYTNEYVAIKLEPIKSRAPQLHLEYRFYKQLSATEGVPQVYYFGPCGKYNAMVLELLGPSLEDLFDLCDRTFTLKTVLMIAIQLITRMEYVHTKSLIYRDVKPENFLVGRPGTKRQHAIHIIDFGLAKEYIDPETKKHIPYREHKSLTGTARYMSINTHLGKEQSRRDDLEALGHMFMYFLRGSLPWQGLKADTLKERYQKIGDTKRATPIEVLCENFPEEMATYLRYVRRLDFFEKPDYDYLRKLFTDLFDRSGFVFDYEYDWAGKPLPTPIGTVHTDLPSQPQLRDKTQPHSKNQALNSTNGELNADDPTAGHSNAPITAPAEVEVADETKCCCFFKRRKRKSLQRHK

`CCOC(=O)c1cc2cc(-c3cc(C(=O)NCc4ccc(C(=O)O)cc4)nn3C)ccc2[nH]1` [BI 4394]: the residual activity was 89% in test [1]; 61% in test [2]; 100% in test [3]; 10% in test [4]; 44% in test [5]; 75% in test [6].

As a reminder, the residual activity is the share of the control activity or signal that is left under treatment.

(Values after ChEMBL document CHEMBL4507281, “Data for DCP probe BI-4394” (2021).)
